Results: publication PMC11943946, “Anti-Neuroinflammatory Eremophilane Sesquiterpenoids from Marine-Derived Fungus Phoma sp. DXH009” (Marine Drugs, 2025)

Columns and labels:
[1] = tested on: LPS-stimulated microglia BV2 cells; experiment: Cellular NO production in LPS-stimulated BV2 microglia; assay type: cell-based; details: for NO inhibition (SAR statement) / reduction in NO content: 20 μM; for NO inhibition (SAR statement): relative to analogues with intact C-6–C-7 / C-11–C-12 motifs; for reduction in NO content: vs LPS control cells
Procedure: (§1) The cellular NO levels were determined using a Nitric Oxide Assay Kit with DAF-FM DA (Beyotime, Nantong, China). A total of 5000 cells were planted in 96-well plates and maintained for 24 h. Then, they were induced with 1 μg/mL lipopolysaccharide (LPS) in the presence or absence of compounds at a final concentration of 20 μM for 24 h. Untreated wells were used as control. Then, supernatant of the culture medium was investigated with a Nitric Oxide Assay Kit with DAF-FM DA (Beyotime, S0020S) per the manufacturer’s instruction. Cells were stained with 2 µM hochest 33,342 at room temperature for 10 min, then cell numbers were auto-counted using the high-content screening system. The cell number in the LPS control group was set as 100%, and the relative cell survival ratios were calculated.

[2] = BV2 cell viability / proliferation (CCK-8, cell count); assay type: cell-based; details: mouse; BV2 cells, 24 h; read-out: IC50 against BV2 cell proliferation (cytotoxicity)
Procedure: as §1
(§2) BV2 microglial cells were seeded into 96-well plates at a density of 1 × 10^4 cells/well and allowed to adhere for 24 h. Cells were then exposed to different concentrations (20 μM for 1–9; 0, 1, 5, 10, 20, 50, 100 μM for 5) of the test compounds (1–9) in triplicate, with DMSO concentrations normalized across all treatment groups. After 24 h incubation, 10 μL CCK-8 reagent (Beyotime Biotechnology, Nantong, China) was added to each well, followed by 30 min incubation at 37 °C. Absorbance at 450 nm was quantified using a BioTek microplate reader (BioTek, Winooski, VT, USA), with cell viability calculated relative to vehicle-treated controls.

[3] = tested on: LPS-treated BV2 microglia cells; experiment: Microglia polarization markers ARG 1 and iNOS (immunofluorescence, immunoblot); assay type: cell-based; details: 2.5, 5, 10 μM, LPS 0.5 μg/mL, 24 h
Procedure: (§3) Cells or tissues were lysed with RIPA lysis buffer containing protease and phosphatase inhibitor cocktail and total protein was extracted and quantified by using a protein determination kit (Thermo Fisher Scientific, Cat#23227, Beijing, China). Protein samples were prepared by centrifugation at the speed of 12,000× g for 30 min at 4 °C; the supernatant was boiled at 95 °C for 10 min and then subjected to SDS-PAGE. An amount of 15 µg of total protein was separated by electrophoresis in a 10% SDS-polyacrylamide gel and transferred to a PVDF membrane (Thermo Fisher Scientific, Cat#88520, Beijing, China). After blocking, the full membranes were cropped according to the molecular weight of examined proteins and incubated with antibodies at 4 °C overnight. […] The average protein levels of control group cells or control mice from each independent experiment or mice were set as 1, and relative changes were calculated.
For the immunofluorescence assay, cells were fixed with pre-cold ethanol at –20 °C, then blocked and incubated with anti-iNOS (Abcam, ab178945) and mouse anti-ARG 1 (Proteintech, 66129) at 4 °C overnight. […] Fluorescence images were acquired using a confocal microscope (Olympus, Tokyo, Japan).

NF-κB p65 = NF-κB p65 signaling pathway (Western blot); assay type: cell-based; details: 2.5, 5, 10 μM, LPS-treated BV2 cells
Procedure: as §3, with “overnight. The used antibodies were listed as follows: anti-iNOS (Abcam, ab178945, Cambridge, UK), anti-COX2 (Affinity, AF7003, Changzhou, China), anti-actin (Affinity Biosciences, AF7018, Changzhou, China), anti-ARG1 (Proteintech, 66129, Wuhan, China), anti-IL-1β (Proteintech, 26048, Wuhan, China), anti-GAPDH (Bioss, bs-41373R, Beijing, China), anti-IL-6 (Affinity, DF6087, Changzhou, China), anti-TNFα (Affinity, AF7014, Changzhou, China), anti-IBA1 (Affinity, DF6442, Changzhou, China).” for “overnight.”

[4] = tested on: LPS-treated BV2 microglia cells; experiment: Inflammatory markers in LPS-treated microglia cells (Western blot); assay type: cell-based; details: 2.5, 5, 10 μM
Procedure: as §3, with “overnight. The used antibodies were listed as follows: anti-iNOS (Abcam, ab178945, Cambridge, UK), anti-COX2 (Affinity, AF7003, Changzhou, China), anti-actin (Affinity Biosciences, AF7018, Changzhou, China), anti-ARG1 (Proteintech, 66129, Wuhan, China), anti-IL-1β (Proteintech, 26048, Wuhan, China), anti-GAPDH (Bioss, bs-41373R, Beijing, China), anti-IL-6 (Affinity, DF6087, Changzhou, China), anti-TNFα (Affinity, AF7014, Changzhou, China), anti-IBA1 (Affinity, DF6442, Changzhou, China).” for “overnight.”

LPS-treated mice = experiment: LPS-induced neuroinflammation mouse model (cortex and hippocampus); assay type: in vivo; details: intraperitoneal; for expression levels of IBA1 in cortex / inflammatory markers iNOS, COX2, IL-1β, IL-6 in cortex (mRNA and protein) / protein level of ARG 1 in cortex: 5 at 10, 20, 40 mg/kg or Dex 15 mg/kg
Procedure: Cells or tissues were lysed with RIPA lysis buffer containing protease and phosphatase inhibitor cocktail and total protein was extracted and quantified by using a protein determination kit (Thermo Fisher Scientific, Cat#23227, Beijing, China). Protein samples were prepared by centrifugation at the speed of 12,000× g for 30 min at 4 °C; the supernatant was boiled at 95 °C for 10 min and then subjected to SDS-PAGE. An amount of 15 µg of total protein was separated by electrophoresis in a 10% SDS-polyacrylamide gel and transferred to a PVDF membrane (Thermo Fisher Scientific, Cat#88520, Beijing, China). After blocking, the full membranes were cropped according to the molecular weight of examined proteins and incubated with antibodies at 4 °C overnight. The used antibodies were listed as follows: anti-iNOS (Abcam, ab178945, Cambridge, UK), anti-COX2 (Affinity, AF7003, Changzhou, China), anti-actin (Affinity Biosciences, AF7018, Changzhou, China), anti-ARG1 (Proteintech, 66129, Wuhan, China), anti-IL-1β (Proteintech, 26048, Wuhan, China), anti-GAPDH (Bioss, bs-41373R, Beijing, China), anti-IL-6 (Affinity, DF6087, Changzhou, China), anti-TNFα (Affinity, AF7014, Changzhou, China), anti-IBA1 (Affinity, DF6442, Changzhou, China). The membranes were washed to remove unbound antibodies and then incubated with HRP-conjugated secondary antibodies at room temperature for 45 min. Protein bands were visualized one by one with an ECL kit (Millipore, Cat#6-201BP, Beijing, China). The uncropped immunoblot data were uploaded as a Supplementary File. Densitometry analysis was performed using Image J Software, Version 1.54p (Rawak Software Inc., Stuttgart, Germany) relative to the loading control, β-actin; GAPDH; or tubulin. The average protein levels of control group cells or control mice from each independent experiment or mice were set as 1, and relative changes were calculated.
Male, 4-week-old C57BL/6J mice were obtained from Peking SiPeiFu Biotechnology Co., Ltd. (Beijing, China), with quality certificate number No.110324241107423512. After acclimation, mice were weighted and divided randomly into 6 groups, including control, LPS control mice, LPS + dexamethasone (Dex, 15 mg/kg), and LPS + HN-005 (10, 20, 40 mg/kg). Mice were intraperitoneally injected with dexamethasone or compound 5 for 2 days, while the control and LPS control group was intraperitoneally injected with an identical volume of 200 μL 0.9% saline. A total of 6 mg/kg LPS was intraperitoneally injected on the second day beyond the control group. After treatment, the mice were weighed and euthanized for brain anatomy.
Mice were anesthetized and their chest dissected to expose the heart sufficiently. The infusion needle penetrated the ventriculus sinister by about 0.5 cm and perfused it with 40 mL sterile PBS buffer until the liver turned white. Then, the prefrontal cortex and hippocampus were separated and preserved. For the immunochemistry assay, the cortex and hippocampus were fixed at 4% PFA at room temperature for 2–4 days. The fixed brain was embedded into paraffin and sectioned at 5 μm in the coronal plane using a sliding microtone (Leica, CM1950, Weztlar, Germany), then blocked with 5% goat serum TBS buffer at room temperature for one hour. After blocking, tissue slides were incubated with the first antibody against IBA1 (Affinity, DF6442, Changzhou, China) at 4 °C for 16 h, then rinsed with TBST three times and incubated with Alex flour 555 conjugated goat anti-rabbit secondary antibody (1:500) and DAPI (1:1000) at 4 °C overnight. A section incubated only with the secondary antibody was used as a negative control. For HE staining, the section was stained with an H&E staining kit (Servicebio, G1076, Wuhan, China) per the manufacturer’s instruction. Fluorescence images were acquired using a confocal microscope (Olympus, Tokyo, Japan). […]

[5] = tested on: Amaranthus hypochondriacus; design: method as in PMID 25603174; details: read-out: IC50 herbicidal effect (radicle growth); cited from earlier work
Echinochloa crus-galli = tested on: Echinochloa crus-galli; design: method as in PMID 25603174; details: read-out: IC50 herbicidal effect (radicle growth); cited from earlier work
Lactuca sativa = tested on: Lactuca sativa; design: method as in doi:10.1584/jpestics.14.223; details: 250 ppm; cited from earlier work
Ehrlich carcinoma cells = tested on: Ehrlich carcinoma cells; design: method as in doi:10.1007/s10600-014-0836-9; details: cited from earlier work
Vero cells = tested on: Vero cells; design: method as in PMID 25734623; details: noncancerous Vero cells; read-out: IC50 toxicity; cited from earlier work
BV2 microglial cells = experiment: BV2 cell viability / proliferation (CCK-8, cell count); assay type: cell-based; details: 20 µM
Procedure: as §1, §2

APP/PS1 transgenic mice = tested on: APP/PS1 transgenic mice; design: method as in PMID 39004599, PMID 25686105; details: cited from earlier work
[6] = tested on: early-stage PD participants; design: method as in PMID 38504306; details: Phase II trial NCT04542915; cited from earlier work
NF-κB signaling = tested on: NF-κB signaling; design: method as in PMID 38616356, PMID 31590042; details: BV2 microglia; read-out: IC50 suppressing NF-κB signaling; cited from earlier work
AD mice = tested on: AD mice; design: method as in PMID 38616356, PMID 31590042; details: relative to untreated AD mice; cited from earlier work
[7] = tested on: LPS-activated BV-2 microglia; design: method as in PMID 34605647; details: read-out: IC50 suppressing nitric oxide production; cited from earlier work

Structure (SMILES): CC1C(O)CCC2=CC(=O)C(C(C)(C)O)=CC21C (stereo not shown) [Compound 2, Phomenone D]
- NO inhibition (SAR statement) [1]: high reduction in NO inhibition

Structure (SMILES): C=C(C)[C@]1(O)C[C@@]2(C)C(=CC1=O)CC[C@@H](O)[C@@H]2C [Compound 3, Hydroxypetasol]
- NO inhibition (SAR statement) [1]: high reduction in NO inhibition

Structure (SMILES): C=C(C)[C@@]12O[C@@H]1[C@@]1(C)C(=C[C@@H]2O)CC[C@@H](O)[C@@H]1C [Compound 5, dihydrosporogen AO-1]
- reduction in NO content ([1]; 24 h): 78%
- EC50 ([1]; Mus musculus, BV-2, LPS-treated BV2 microglial cells, 24 h, read-out: EC50 in decreasing cellular NO production): 3.11 µM
- selectivity index (SI) ([1]; cytotoxicity IC50 vs NO EC50, BV2 cells): 12.2
- IC50 [2]: 38 µM
- iNOS and ARG 1 protein levels [3]: dose-dependently reversed iNOS elevations and ARG 1
- ratio of ARG 1 to iNOS [3]: corrected the decreased ratio of ARG 1 to iNOS
- activation of NF-κB axis (phosphorylated NF-κB p65) (NF-κB p65): dose-dependently reversed the activation of the NF-κB axis
- total level of NF-κB p65 (NF-κB p65): no major change
- level of inflammatory markers IBA1, COX-2, TNF-α, IL-1β, IL-6 [4]: efficiently reversed the increases in the level of inflammatory markers
- expression levels of IBA1 in cortex (LPS-treated mice): markedly decreased the expression levels of IBA1
- inflammatory markers iNOS, COX2, IL-1β, IL-6 in cortex (mRNA and protein) (LPS-treated mice): efficiently suppressed the activation of these inflammatory markers
- protein level of ARG 1 in cortex (LPS-treated mice): dose-dependently increased the protein level of ARG 1
- neuroinflammation in hippocampus tissue (LPS-treated mice; 10, 20, 40 mg/kg): inhibits neuroinflammation in the hippocampus tissue
- IC50 [5]: 170 µM
- IC50 (Echinochloa crus-galli): 300 µM
- inhibition (radicle growth) (Lactuca sativa): 70%
- ED50 cytotoxicity (Ehrlich carcinoma cells): 400 µM
- IC50 (Vero cells): 24000 µM

Structure (SMILES): C=C(C)[C@@H]1C[C@@]2(C)C(=CC1=O)CC[C@@H](O)[C@@H]2C [Compound 8, petasol]
- proliferation inhibition (cytotoxicity) (BV2 microglial cells): 35–85%

Structure (SMILES): C=C(C)C1=C[C@@]2(C)C(=CC1=O)CC[C@@H](O)[C@@H]2C [Compound 9, 6-dehydropetasol]
- proliferation inhibition (cytotoxicity) (BV2 microglial cells): 35–85%

Structure (SMILES): C[C@@H]1C[C@H]2[C@@H]3CCC4=CC(=O)C=C[C@]4(C)[C@@]3(F)[C@@H](O)C[C@]2(C)[C@@]1(O)C(=O)CO [Dex, dexamethasone, reference compound]
- reduction in NO content ([1]; 24 h): 77%
- expression levels of IBA1 in cortex (LPS-treated mice): markedly decreased the expression levels of IBA1
- inflammatory markers iNOS, COX2, IL-1β, IL-6 in cortex (mRNA and protein) (LPS-treated mice): efficiently suppressed the activation of these inflammatory markers
- protein level of ARG 1 in cortex (LPS-treated mice): no induction effect was observed

Structure (SMILES): CC(C)(O)c1coc(S(=O)(=O)NC(=O)Nc2c3c(cc4c2CCC4)CCC3)c1 [MCC950]
- attenuation of hippocampal IL-1β production (APP/PS1 transgenic mice): 68.5%

Structure (SMILES): Oc1ccc(/C=C/c2cc(O)cc(O)c2)cc1 [Resveratrol]
- reduction in CSF TNF-α levels [6]: 31.6%

Structure (SMILES): COc1cc(/C=C/C(=O)CC(=O)/C=C/c2ccc(O)c(OC)c2)ccc1O [curcumin]
- IC50 (NF-κB signaling): 4.7 µM
- improvement in radial arm maze errors (AD mice): 37.2%

Structure (SMILES): C=C1CO[C@@]2(O)CC3=CC(=O)C(O)=C(C)[C@@]3(C)C[C@@]12O [septoreremophilane F]
- IC50 [7]: 12 ± 0.32 µM
